Where “and” joins values, the source holds several entries; their conditions need not be identical. Equal entries are not always repeated. Where two headings read alike, the source gives them in different places.
Experiments:
[1] = Direct UV photolytic degradation of single contaminants in deionized water (collimated beam MP Hg lamp, HPLC/MS/MS); format: physicochemical; conditions: for UV dose for 90% degradation: polychromatic UV 200-400 nm; for pH dependence of rate constant (k) for photolytic degradation: FIG. 21 and FIG. 23, in words; for Optimal pH for photodegradation: UV direct photolysis
Protocol: Solutions of tested contaminants were prepared by dissolving one or more contaminant in 150 ml deionized water (DI) at a concentration of 1 mg/l for each contaminant. The solution was then placed into an open 90×50 mm crystallization dish. […] No. 7830-61, from Ace Glass Inc.) housed in a bench scale collimated beam apparatus. […] 0.5 ml samples were removed from the irradiated solution at selected time intervals in order to measure the concentration of the remaining contaminant. Samples were measured in a 1100-Finnigan LCQ HPLC/MS/MS (high performance liquid chromatography/tandem mass spectrometry) apparatus (Agilent), in order to obtain a chromatogram for the sample. The concentration was expressed as the area of the peak observed in the HPLC/MS/MS chromatogram. The degradation kinetics were expressed as a logarithm of the ratio of the concentration (CH) remaining following a dose H of irradiation to initial concentration (C0). Such a logarithm decreased in a linear manner as a function of the dose, as follows: […] The data were fitted using a linear regression approach (with R^2>0.9) resulting in pseudo-first order reaction kinetics which reflect the difference in photodegradation between samples.

[2] = cited from earlier work
[3] = Direct UV photolytic degradation of SMX in synthetic effluent water; format: physicochemical
Protocol: Solutions of tested contaminants were prepared by dissolving one or more contaminant in 150 ml deionized water (DI) at a concentration of 1 mg/l for each contaminant. The solution was then placed into an open 90×50 mm crystallization dish.
The aqueous solution was stirred continuously for the duration of the experiment, and irradiated using a 0.45 kW polychromatic medium-pressure (MP) Hg vapor lamp (Ace-Hanovia Lamp Cat. No. 7830-61, from Ace Glass Inc.) housed in a bench scale collimated beam apparatus. The polychromatic irradiation was at ultraviolet (UV) wavelengths in a range of 200-400 nm.
0.5 ml samples were removed from the irradiated solution at selected time intervals in order to measure the concentration of the remaining contaminant. Samples were measured in a 1100-Finnigan LCQ HPLC/MS/MS (high performance liquid chromatography/tandem mass spectrometry) apparatus (Agilent), in order to obtain a chromatogram for the sample. The concentration was expressed as the area of the peak observed in the HPLC/MS/MS chromatogram.
The data were fitted using a linear regression approach (with R^2>0.9) resulting in pseudo-first order reaction kinetics which reflect the difference in photodegradation between samples. The constant k (cm^2/mJ), the degradation rate fluence-based constant, was calculated as the negative slope obtained when the degradation was plotted logarithmically as described hereinabove.
The UV dose required for 90% degradation of the tested contaminants was calculated using the obtained value for k, by inserting the appropriate numbers into the above equation: […]
Synthetic wastewater was prepared as described in Seo et al. and diluted with deionized water to obtain a 70% transmittance at 254 nm, which is typical for wastewater effluents treated by UV irradiation.

[4] = 5 mg/L hydrogen peroxide, UV fluence of 50 mJ/cm^2; cited from earlier work
[5] = cited from earlier work; remark: listed apart in the source
[6] = UV fluence of 1000 mJ/cm^2, pH 7.5, 254 nm; cited from earlier work
[7] = cited from earlier work; remark: listed apart in the source
[8] = least favorable tested pH vs optimal pH, deionized water

Compound	pH dependence of photolytic degradation ([1]; deionized water, in words)	Reduction in UV dose [1, 8]	UV dose for 90% degradation ([1]; pH 6, deionized water, 1 mg/l)	UV dose for 90% degradation ([1]; pH 7, deionized water, 1 mg/l)	pH dependence of rate constant (k) for photolytic degradation ([1]; deionized water)	Relevant pKa [2]	UV dose for 90% degradation ([1]; pH 5, deionized water, 1 mg/l)	other results
CC1(C)S[C@@H]2[C@H](NC(=O)[C@H](N)c3ccccc3)C(=O)N2[C@H]1C(=O)O [AMP, ampicillin]	more rapid at a pH of 8 than at a pH of 7 or 6	33.4%	2875 mJ/cm^2	2875 mJ/cm^2	–	–	–	UV dose for 90% degradation ([1]; pH 8, deionized water, 1 mg/l): 1916 mJ/cm2
CC1(C)S[C@@H]2[C@H](NC(=O)[C@H](N)c3ccc(O)cc3)C(=O)N2[C@H]1C(=O)O [AMX, Amoxicillin]	more rapid at a pH of 7 or 8 than at a pH of 6	36.4%	3285 mJ/cm^2	2090 mJ/cm^2	higher at a relatively high pH (pH 7 or 8)	6.9	–	UV dose for 90% degradation ([1]; pH 8, deionized water, 1 mg/l): 2090 mJ/cm2
O=C(O)c1cn(C2CC2)c2cc(N3CCNCC3)c(F)cc2c1=O [CPR, Ciprofloxacin]	more rapid at a pH of 7 than at a pH of 5	80.7%	742 mJ/cm^2	403 mJ/cm^2	higher at a pH of 7 than at a pH of 5	–	2091 mJ/cm^2	Degradation in mixture (30 min, pH 5): 26%; Degradation in mixture (60 min): 96%; Degradation in mixture without change of pH, by extrapolation (60 min, pH 5): 53%
NC(=O)N1c2ccccc2C=Cc2ccccc21 [CPZ, Carbamazepine]	more rapid at a pH of 8 than at a pH of 6	66.6%	23000 mJ/cm^2	11500 mJ/cm^2	–	13	–	UV dose for 90% degradation ([1]; pH 8, deionized water, 1 mg/l): 7667 mJ/cm2
CCN1CCN(c2cc3c(cc2F)c(=O)c(C(=O)O)cn3C2CC2)CC1 [ENR, enrofloxacin]	more rapid at a pH of 7 than at a pH of 5	68.2%	2300 mJ/cm^2	1045 mJ/cm^2	–	5.94	3286 mJ/cm^2	–
CCn1cc(C(=O)O)c(=O)c2cc(F)c(N3CCNCC3)cc21 [NOR, norfloxacin]	more rapid at a pH of 7 than at a pH of 5	84.7%	2091 mJ/cm^2	697 mJ/cm^2	higher at a relatively high pH (pH 7 or 8)	8.4	4600 mJ/cm^2	–
CN(C)[C@@H]1C(O)=C(C(N)=O)C(=O)[C@@]2(O)C(O)=C3C(=O)c4c(O)cccc4[C@@](C)(O)[C@H]3[C@H](O)[C@@H]12 [OTC, oxytetracycline]	more rapid at a pH of 7 than at a pH of 5	–	2556 mJ/cm^2	1643 mJ/cm^2	higher at a pH of 7 than at a pH of 5	–	5750 mJ/cm^2	Degradation in mixture (30 min, pH 5): 54%; Degradation in mixture (60 min): 91%; Degradation in mixture without change of pH, by extrapolation (60 min, pH 5): 81%
CC(COc1ccc(Oc2ccccc2)cc1)Oc1ccccn1 (stereo not shown) [PRX, pyriproxyfen]	–	–	–	–	–	–	–	pH dependence of photolytic degradation ([1]; 1 mg/l): more rapid at a pH of 5 than at a pH of 3; UV dose for 90% removal ([1]; pH 3, deionized water): 2555.6 mJ/cm^2; UV dose for 90% removal ([1]; pH 4, deionized water): 1352.9 mJ/cm^2; UV dose for 90% removal ([1]; pH 5, deionized water): 1277.8 mJ/cm^2; Reduction in UV dose ([1]; tested pH 3-5, deionized water): 50%
COc1cc(NS(=O)(=O)c2ccc(N)cc2)nc(OC)n1 [SMT, sulfadimethoxine]	more rapid at a pH of 5 than at a pH of 7	58.3%	3300 mJ/cm^2	5750 mJ/cm^2	higher at a relatively low pH (pH 5)	6.08	2400 mJ/cm^2	Optimal pH for photodegradation [1]: 5
Cc1cc(NS(=O)(=O)c2ccc(N)cc2)no1 [SMX, sulfamethoxazole]	more rapid at a pH of 5 than at a pH of 7	73.4%	590 mJ/cm^2	–	higher at a pH of 5 than at a pH of 7	–	–	Optimal pH for photodegradation [1]: 5; Irradiation time for 90% degradation ([1]; pH 5, deionized water): approximately 4 minutes; Irradiation time for 90% degradation ([1]; pH 7, deionized water): approximately 12 minutes; UV dose for 90% degradation ([3]; pH 7, synthetic effluent water): 1643 mJ/cm^2; Reduction in UV dose ([3]; pH 7 vs pH 5, synthetic effluent water): 80.8%; pH dependence of photolytic degradation ([3]; synthetic effluent water, in words): more rapid at a pH of 5 than at a pH of 7; Degradation in mixture (30 min, pH 5): 98.4%
CN(C)[C@@H]1C(O)=C(C(N)=O)C(=O)[C@@]2(O)C(O)=C3C(=O)c4c(O)cccc4[C@@](C)(O)[C@H]3C[C@@H]12 [TC, Tetracycline]	more rapid at a pH of 7 than at a pH of 5	–	2300 mJ/cm^2	1200 mJ/cm^2	higher at a relatively high pH (pH 7 or 8)	–	8000 mJ/cm^2	–
Oc1nc(Cl)c(Cl)cc1Cl [TCP, 3,5,6-trichloro-2-pyridinol]	–	–	–	–	–	–	–	Degradation of TCP via indirect photolytic process [4]: 50%; Degradation of TCP via direct photolytic process ([5]; UV fluence of 50 mJ/cm^2): approximately 40%; Photodegradation rate, constant maximum value ([5]; pH 5): 6.40×10^−3 cm^2 mJ^−1
COc1cc(Cc2cnc(N)nc2N)cc(OC)c1OC [TMP, Trimethoprim]	more rapid at a pH of 8 than at a pH of 6	95% and 95.4%	23000 mJ/cm^2	3833 mJ/cm^2	higher at a relatively high pH (pH 7 or 8)	–	–	Enhancement of photolysis rate ([1]; changing the pH value from 6 to 8, deionized water): more than 12 fold; UV dose for 90% degradation ([1]; pH 8, deionized water, 1 mg/l): 1770 mJ/cm2
CCc1cccc(C)c1N(C(=O)CCl)C(C)COC (stereo not shown) [metolachlor]	–	–	–	–	–	–	–	Fraction degraded [6]: Approximately half
Cc1ncc([N+](=O)[O-])n1CCO [metronidazole]	–	–	–	–	–	2.4	–	Dependency of direct UV photolysis on solution pH ([7]; pH 3-9.5): no significant dependency; Removal efficiency of direct photolysis ([7]; pH 6): low removal efficiency
